Laboratory results reported in ChEMBL document CHEMBL1128401, “Structure-activity relationships in the 8-amino-6,7,8,9-tetrahydro-3H-benz[e]indole ring system. 1. Effects of substituents in the aromatic system on serotonin and dopamine receptor subtypes” (J Med Chem, 1995).
pKi: −log10 of the molar value. The source made the active and inactive calls. No cut-off for these calls is given here.

What was measured:
Rattus norvegicus [1] = test: The compound was tested in vivo for DOPA accumulation in limbic system against reserpine-pretreated rats; I=inactive at the highest dose tested; format: functional, organism-based
D(3) dopamine receptor [2] = target: T1, D(3) dopamine receptor (Rattus norvegicus, UniProt P19020); test: Binding affinity against Dopamine receptor D3 from CHO-K1 cells, using [3H]spiperone as the radioligand.; format: cell-based; conditions: read-out: Ki
[3] = target: 5-hydroxytryptamine receptor 1B (Homo sapiens, UniProt P28222); test: Binding affinity against 5-hydroxytryptamine 1D receptor beta expressed in CHO-K1 cells, using [3H]5-HT as the radioligand.; format: cell-based; conditions: for pKi: read-out: Ki; for Ki: cho-k1
Rattus norvegicus [4] = test: compound was tested in vivo for 5-HTP accumulation in corpus striatum against reserpine-pretreated rats, activity expressed as ED50;I= inactive at the highest dose tested; format: functional, organism-based
D(2) dopamine receptor [5] = target: T2, D(2) dopamine receptor (Rattus norvegicus, UniProt P61169); test: Binding affinity against Dopamine receptor D2 from CHO-K1 cells, using [3H]U-86,170 as the radioligand.; format: cell-based
[6] = target: 5-hydroxytryptamine receptor 1D (Homo sapiens, UniProt P28221); test: Binding affinity against 5-hydroxytryptamine 1D receptor alpha expressed in CHO-K1 cells, using [3H]-5-HT as the radioligand.; format: cell-based; conditions: for pKi: read-out: Ki
Rattus norvegicus [7] = test: The compound was tested in vivo for DOPA accumulation in hemispheres (cortex) against reserpine-pretreated rats;I= inactive at the highest dose tested; format: functional, organism-based
[8] = target: T3, 5-hydroxytryptamine receptor 1A (Rattus norvegicus, UniProt P19327); test: Binding affinity against 5-hydroxytryptamine 1A receptor from CHO-K1 cells, using [3H]8-OH-DPAT as the radioligand.; format: cell-based
T3 sequence (P19327 whole entry): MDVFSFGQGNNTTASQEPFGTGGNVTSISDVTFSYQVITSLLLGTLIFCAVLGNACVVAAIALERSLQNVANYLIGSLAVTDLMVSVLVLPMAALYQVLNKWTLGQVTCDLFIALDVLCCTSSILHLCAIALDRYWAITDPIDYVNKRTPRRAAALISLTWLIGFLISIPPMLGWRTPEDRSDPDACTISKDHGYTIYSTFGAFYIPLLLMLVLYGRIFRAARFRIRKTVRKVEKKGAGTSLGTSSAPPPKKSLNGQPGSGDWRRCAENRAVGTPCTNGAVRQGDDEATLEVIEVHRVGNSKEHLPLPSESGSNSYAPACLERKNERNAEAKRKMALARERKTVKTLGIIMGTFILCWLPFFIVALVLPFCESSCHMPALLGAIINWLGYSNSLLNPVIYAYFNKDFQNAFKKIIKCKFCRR

Rattus norvegicus [9] = test: Bioavailability in male Sprague-Dawley rats, after the iv administration at a dose of 5.0(pmol/g/h); format: ADME, organism-based; conditions: in vivo
[10] = tmax in hours at a iv dose of 5.0(pmol/g/h).; format: ADME, organism-based; conditions: in vivo
[11] = Rat bioavailability after iv/po administration, expressed as %; format: ADME, organism-based; conditions: in vivo
[12] = tmax in hours at a po dose of 40.0(pmol/g/h).; format: ADME, organism-based; conditions: in vivo
D(2) dopamine receptor [13] = target: T2, D(2) dopamine receptor; test: Binding affinity against Dopamine receptor D2 expressed in CHO-K1 cells, using [3H]U-86170 as the radioligand.; format: cell-based
Rattus norvegicus [14] = test: The Compound was tested in vivo for DOPA accumulation in hemispheres (cortex) against reserpine-pretreated rats; P=significant partial reduction only at the highest dose tested (12.5).; format: functional, organism-based
Rattus norvegicus [15] = test: Bioavailability in male Sprague-Dawley rats, after the po administration at a dose of 40.0(pmol/g/h); format: ADME, organism-based; conditions: in vivo
D(3) dopamine receptor [16] = target: T1, D(3) dopamine receptor; test: Binding affinity against Dopamine receptor D3 expressed in CHO-K1 cells, using [3H]spiperone as the radioligand.; format: cell-based
Rattus norvegicus [17] = test: Compound was tested in vivo for 5-HTP accumulation in hemispheres (cortex) against reserpine-pretreated rats; P=significant partial reduction only at the highest dose tested (12.5).; format: functional, organism-based
Rattus norvegicus [18] = test: In vivo for 5-HTP accumulation in corpus striatum against reserpine-pretreated rats.; format: functional
Rattus norvegicus [19] = test: In vivo for DOPA accumulation in corpus striatum against reserpine-pretreated rats.; format: functional
Rattus norvegicus [20] = test: The Compound was tested in vivo for DOPA accumulation in hemispheres (cortex) against reserpine-pretreated rats;I= inactive at the highest dose tested (25); format: functional, organism-based
Rattus norvegicus [21] = test: In vivo for 5-HTP accumulation in limbic system against reserpine-pretreated rats.; format: functional
Rattus norvegicus [22] = test: In vivo for DOPA accumulation in limbic system against reserpine-pretreated rats.; format: functional
Rattus norvegicus [23] = test: The compound was tested in vivo for DOPA accumulation in limbic system against reserpine-pretreated rats; P=significant partial reduction only at the highest dose tested (20).; format: functional, organism-based
Rattus norvegicus [24] = test: compound was tested in vivo for 5-HTP accumulation in corpus striatum against reserpine-pretreated rats, activity expressed as ED50; P=significant partial reduction only at the highest dose tested (20).; format: functional, organism-based
Rattus norvegicus [25] = test: The compound was tested in vivo for DOPA accumulation in hemispheres (cortex) against reserpine-pretreated rats; I= inactive at the highest dose tested (20).; format: functional, organism-based
D(3) dopamine receptor [26] = target: T1, D(3) dopamine receptor; test: The compound was tested in vitro for binding affinity against cloned mammalian Dopamine receptor D3 expressed in CHO cells by, using [3H]spiperone as radioligand; format: cell-based
Rattus norvegicus [27] = test: compound was tested in vivo for 5-HTP accumulation in limbic system against reserpine-pretreated rats; P=significant partial reduction only at the highest dose tested (20).; format: functional, organism-based
Rattus norvegicus [28] = test: compound was tested in vivo for 5-HTP accumulation in hemispheres (cortex) against reserpine-pretreated rats; P=significant partial reduction only at the highest dose tested (20).; format: functional, organism-based
Rattus norvegicus [29] = test: compound was tested in vivo for DOPA accumulation in corpus striatum against reserpine-pretreated rats; P=significant partial reduction only at the highest dose tested (20).; format: functional, organism-based
Rattus norvegicus [30] = species: Rattus norvegicus; test: Compound was tested for binding affinity against D3 receptor expressed in CHO-K1 cells, using [3H]spiperone as the radioligand;I= inactive (less than 50% inhibition at 1 uM).
Rattus norvegicus [31] = species: Rattus norvegicus; test: Compound was tested for binding affinity against D2 receptor expressed in CHO-K1 cells, using [3H]U-86170 as the radioligand; I=inactive (less than 50% inhibition at 1 uM).
Rattus norvegicus [32] = test: Compound was tested in vivo for 5-HTP accumulation in limbic system against reserpine-pretreated rats;I= inactive at the highest dose tested (12.5).; format: functional, organism-based
D(3) dopamine receptor [33] = target: T1, D(3) dopamine receptor; test: Compound was tested for binding affinity against Dopamine receptor D3 expressed in CHO-K1 cells, using [3H]spiperone as the radioligand; I= inactive at the highest dose tested (12.5).; format: cell-based
Rattus norvegicus [34] = test: Compound was tested in vivo for DOPA accumulation in corpus striatum against reserpine-pretreated rats; I=inactive at the highest dose tested (12.5).; format: functional, organism-based
Rattus norvegicus [35] = test: The Compound was tested in vivo for DOPA accumulation in limbic system against reserpine-pretreated rats;I= inactive at the highest dose tested (12.5).; format: functional, organism-based
Rattus norvegicus [36] = test: The Compound was tested in vivo for DOPA accumulation in limbic system against reserpine-pretreated rats; inactive at the highest dose tested (12.5).; format: functional, organism-based
D(2) dopamine receptor [37] = target: T2, D(2) dopamine receptor; conditions: cho-k1
Rattus norvegicus [38] = test: The compound was tested in vivo for DOPA accumulation in limbic system against reserpine-pretreated rats;I= inactive at the highest dose tested; format: functional, organism-based
Rattus norvegicus [39] = test: compound was tested in vivo for DOPA accumulation in corpus striatum against reserpine-pretreated rats;I= inactive at the highest dose tested; format: functional, organism-based

5-hydroxytryptamine receptor 1B, sequence (P28222 whole entry): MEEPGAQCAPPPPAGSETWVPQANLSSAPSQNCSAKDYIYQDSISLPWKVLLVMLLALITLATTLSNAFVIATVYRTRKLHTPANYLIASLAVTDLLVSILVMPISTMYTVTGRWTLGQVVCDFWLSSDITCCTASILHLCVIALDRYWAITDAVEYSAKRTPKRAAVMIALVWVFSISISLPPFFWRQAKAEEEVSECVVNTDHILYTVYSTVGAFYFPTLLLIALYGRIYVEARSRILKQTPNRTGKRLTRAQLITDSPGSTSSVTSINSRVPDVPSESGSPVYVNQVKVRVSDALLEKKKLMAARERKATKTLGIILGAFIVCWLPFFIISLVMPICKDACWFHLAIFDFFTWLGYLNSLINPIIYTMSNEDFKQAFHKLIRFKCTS
T1 sequence (P19020 whole entry): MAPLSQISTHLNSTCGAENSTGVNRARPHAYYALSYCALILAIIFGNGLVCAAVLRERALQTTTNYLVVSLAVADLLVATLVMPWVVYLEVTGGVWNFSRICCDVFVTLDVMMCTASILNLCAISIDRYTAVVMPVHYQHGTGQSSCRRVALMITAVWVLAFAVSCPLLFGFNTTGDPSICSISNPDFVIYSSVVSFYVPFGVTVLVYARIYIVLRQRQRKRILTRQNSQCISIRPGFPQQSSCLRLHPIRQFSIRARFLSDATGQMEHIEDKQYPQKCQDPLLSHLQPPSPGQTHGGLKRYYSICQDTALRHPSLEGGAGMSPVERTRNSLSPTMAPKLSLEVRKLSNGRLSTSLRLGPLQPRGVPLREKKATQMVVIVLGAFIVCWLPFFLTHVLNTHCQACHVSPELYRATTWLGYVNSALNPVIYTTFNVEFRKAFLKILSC
5-hydroxytryptamine receptor 1D, sequence (P28221 whole entry): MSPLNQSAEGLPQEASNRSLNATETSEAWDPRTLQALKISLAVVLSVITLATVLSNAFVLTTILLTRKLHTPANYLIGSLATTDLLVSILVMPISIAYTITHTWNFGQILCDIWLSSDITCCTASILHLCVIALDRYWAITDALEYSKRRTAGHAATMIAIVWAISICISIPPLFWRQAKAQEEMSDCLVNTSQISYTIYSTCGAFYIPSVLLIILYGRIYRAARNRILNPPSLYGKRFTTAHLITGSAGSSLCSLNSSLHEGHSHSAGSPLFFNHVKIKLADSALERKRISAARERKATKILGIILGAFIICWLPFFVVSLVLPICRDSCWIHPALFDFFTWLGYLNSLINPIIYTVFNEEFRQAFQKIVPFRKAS
T2 sequence (P61169 whole entry): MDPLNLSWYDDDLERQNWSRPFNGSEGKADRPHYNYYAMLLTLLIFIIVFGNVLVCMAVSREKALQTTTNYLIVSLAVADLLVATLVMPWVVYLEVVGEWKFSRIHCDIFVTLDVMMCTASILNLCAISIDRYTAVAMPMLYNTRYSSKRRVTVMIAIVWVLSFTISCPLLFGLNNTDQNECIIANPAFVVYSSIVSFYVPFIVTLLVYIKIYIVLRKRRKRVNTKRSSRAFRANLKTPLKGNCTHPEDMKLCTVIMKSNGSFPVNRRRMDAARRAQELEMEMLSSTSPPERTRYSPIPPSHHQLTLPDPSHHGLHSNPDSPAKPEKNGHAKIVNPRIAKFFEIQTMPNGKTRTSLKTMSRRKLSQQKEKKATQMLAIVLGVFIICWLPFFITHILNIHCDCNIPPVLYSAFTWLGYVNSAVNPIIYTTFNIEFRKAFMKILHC

In the case of `CCCN(CCC)C1CCc2ccc3c(c(C=O)cn3C)c2C1` (centres undefined), the ED50 (Rattus norvegicus [1]) was “inactive”, the pKi (D(3) dopamine receptor [2]) was 5.99 and the pKi [3] was 6.36. The ED50 (Rattus norvegicus [4]) was “inactive”, the pKi (D(2) dopamine receptor [5]) was 6.29 and the pKi [6] was 6.48. For the same compound, the ED50 (Rattus norvegicus [7]) was “inactive” and the pKi [8] was 7.40.

For `CCCN(CCC)C1CCc2ccc3[nH]cc(C#N)c3c2C1` (centres undefined), the AUC (Rattus norvegicus [9]) was 1115 pM ml-1, the Tmax [10] was 2 h and the bioavailability [11] was 54%. The pKi [3] was 7.42, the T max [12] was 135 h and the pKi (D(2) dopamine receptor [13]) was 7.62. The pKi [6] was 8.12, the ED50 (Rattus norvegicus [14]) was “Weak activity” and the AUC (Rattus norvegicus [15]) was 4849 pM ml-1. For the same compound, the pKi (D(3) dopamine receptor [16]) was 7.37 and the pKi [8] was 9.40.

For `CCCN(CCC)C1CCc2ccc3[nH]cc(SC)c3c2C1` (centres undefined), the ED50 (Rattus norvegicus [17]) was “Weak activity”, the Ki [3] was “Not Active” and the ED50 (Rattus norvegicus [18]) was 10.2 µmol/kg. For the same compound, the ED50 (Rattus norvegicus [19]) was 5.23 µmol/kg, the ED50 (Rattus norvegicus [20]) was “inactive” and the pKi (D(2) dopamine receptor [13]) was 7.48. The ED50 (Rattus norvegicus [21]) was 10 µmol/kg, the pKi [6] was 7.74 and the ED50 (Rattus norvegicus [22]) was 7.11 µmol/kg. The pKi (D(3) dopamine receptor [16]) was 7.26 and the pKi [8] was 7.89.

With `CCCN(CCC)C1CCc2cc(F)c3c(c(C=O)cn3C)c2C1` (centres undefined) the ED50 (Rattus norvegicus [23]) was “Weak activity”, the ED50 (Rattus norvegicus [24]) was “Weak activity” and the ED50 (Rattus norvegicus [25]) was “inactive”. The pKi [3] was 6.21, the pKi (D(3) dopamine receptor [26]) was 6.24 and the ED50 (Rattus norvegicus [27]) was “Weak activity”. For the same compound, the ED50 (Rattus norvegicus [28]) was “Weak activity”, the pKi (D(2) dopamine receptor [13]) was 5.99 and the pKi [6] was 6.38. For the same compound, the ED50 (Rattus norvegicus [29]) was “Weak activity” and the pKi [8] was 7.55.

In the case of `CCCN(CCC)C1CCc2ccc3[nH]cc(CN(C)C)c3c2C1` (centres undefined), the Ki (Rattus norvegicus [30]) was “inactive”, the Ki (Rattus norvegicus [31]) was “inactive” and the ED50 (Rattus norvegicus [32]) was “inactive”. For the same compound, the Ki (D(3) dopamine receptor [33]) was “Not Active”, the Ki [3] was “Not Active” and the ED50 (Rattus norvegicus [34]) was “inactive”. For the same compound, the ED50 (Rattus norvegicus [35]) was “inactive”, the Ki ([6]; cho-k1) was “Not Active” and the ED50 (Rattus norvegicus [36]) was “inactive”. The Ki (D(2) dopamine receptor [37]) was “Not Active” and the pKi [8] was 6.95.

In the case of `CCCN(CCC)[C@@H]1CCc2ccc3[nH]cc(C=O)c3c2C1`, the ED50 (Rattus norvegicus [38]) was “inactive”, the pKi (D(3) dopamine receptor [2]) was 7.29 and the ED50 (Rattus norvegicus [39]) was “inactive”. The pKi [3] was 6.68, the pKi (D(2) dopamine receptor [5]) was 7.77 and the pKi [6] was 7.51. For the same compound, the ED50 (Rattus norvegicus [7]) was “inactive”.
